# Reference: patent US20020132812A1, “Oral hypoglycaemic agents” (priority 2000, published 2002)
# Counter-ions that a name gives are not always drawn.
row,melting point [°C],Compound
1,143 to 144,"Nc1cc2c(c(C(CC3=NCCN3)c3ccccn3)c1)OCC2 (stereo not shown) [Example 41, 7-[2-(4,5-Dihydro-1H-imidazol-2-yl)-1-pyridin-2-yl-ethyl]-2,3-dihydro-benzofuran-5-ylamine]"
2,92 to 93,"FC(F)(F)c1cccc(C(CC2=NCCN2)c2ccc3ccccc3n2)c1 (stereo not shown) [Example 38, ethyl compound, 2-[2-(4,5-Dihydro-1H-imidazol-2-yl)-1-(3-trifluoromethyl-phenyl)-ethyl]-quinoline]"
3,186 to 187,"Oc1cc2c(c(C(CC3=NCCN3)c3ccccn3)c1)OCC2 (stereo not shown) (as salt: hydroiodid) [Example 30, 7-[2-(4,5-Dihydro-1H-imidazol-2-yl)-1-pyridin-2-yl-ethyl]-2,3-dihydro-benzofuran-5-ol]"
4,162 to 162.5,"c1ccc(C(CC2=NCCN2)c2cccc(C3OCCO3)c2)nc1 (stereo not shown) (as salt: fumarate) [Example 33, 2-[2-(4,5-Dihydro-1H-imidazol-2-yl)-1-(3-[1,3]dioxolan-2-yl-phenyl)ethyl]pyridine]"
5,76.5,"FC(F)(F)c1cccc(/C(=C/C2=NCCN2)c2ccc3ccccc3n2)c1 [Example 38, vinyl compound, 2-[2-(4,5-Dihydro-1H-imidazol-2-yl)-1-(3-trifluoromethyl-phenyl)-vinyl]-quinoline]"
6,138 to 139,"O=Cc1cccc(C(CC2=NCCN2)c2ccccn2)c1 (stereo not shown) (as salt: fumarate) [Example 34, 3-[2-(4,5-Dihydro-1H-imidazol-2-yl)-1-pyridin-2-yl-ethyl]-benzaldehyde]"
7,166 to 167,"c1ccc(C(CC2=NCCN2)c2cccc3c2OCC3)nc1 (stereo not shown) (as salt: fumarate) [Example 40, 1-(2,3-Dihydro-7-benzofuranyl)-2-(4,5-dihydro-2-imidazolyl)-1-(2-pyridyl)-ethane]"
8,98 to 98.5,"C(/C1=NCCN1)=C(/c1cccc(C2OCCO2)c1)c1ccccn1 (as salt: fumarate) [Example 32, 2-[2-(4,5-Dihydro-1H-imidazol-2-yl)-1-(3-[1,3]dioxolan-2-yl-phenyl)-vinyl]-pyridine]"
9,154 to 155,"Nc1cccc(C(CC2=NCCN2)c2ccccn2)c1 (stereo not shown) (as salt: fumarate) [Example 39, 3-[2-(4,5-Dihydro-1H-imidazol-2-yl)-1-pyridin-2-yl-ethyl]-phenylamine]"
10,114 to 115,"OCc1cccc(C(CC2=NCCN2)c2ccccn2)c1 (stereo not shown) (as salt: fumarate) [Example 35, 3-[2-(4,5-Dihydro-1H-imidazol-2-yl)-1-pyridin-2-yl-ethyl]-phenyl-methanol]"
